Values of other authors as cited in patent US20230167505A1, “CIRCULATING TUMOR DNA AS A BIOMARKER FOR LEUKEMIA TREATMENT” (Cardiff Oncology, Inc., priority 2020, published 2023).

Settings: in vivo; cited from earlier work

For `CC[C@@H]1C(=O)N(C)c2cnc(Nc3ccc(C(=O)N[C@H]4CC[C@H](N5CCN(CC6CC6)CC5)CC4)cc3OC)nc2N1C(C)C` [volasertib], the half-life is given as roughly 120 h.
